# Test results published in patent US20230136600A1, “Method and device for screening antigen epitope polypeptide” (priority 2020, published 2023).
# Legend:
# Balb/c mice = assay: Polypeptide chip-based vaccine immunogenicity scoring system; type: in vivo; design: key to A2: whether the 95 percentile of the last sampling is increased compared with the end point: Y = rise; N = no rise; details: for A: 95 percentile grouping number score / B: Mouse performance score: total score = 5
# [1] = tested on: novel coronavirus (live coronavirus), vero cells; assay: In-vitro live virus neutralization experiment with serum of immunized mice (CPE method); type: in vivo, SARS-CoV-2
# [2] = Embodiment III, polypeptide-KLH
# [3] = Embodiment III, polypeptide-KLH, Mix1-10
# [4] = Embodiment III, polypeptide-KLH, value of the whole mix
# [5] = adjuvant AddaVax, 7 peptides co-immunized in mice
# [6] = adjuvant Adju-Phos, 7 peptides co-immunized in mice
# [7] = adjuvant Alhydrogel, 7 peptides co-immunized in mice
# [8] = adjuvant Imjet Alumn, 7 peptides co-immunized in mice
# [9] = adjuvant MA103A, 7 peptides co-immunized in mice
# [10] = adjuvant MA103B, 7 peptides co-immunized in mice
sequence,measurement,setting,value
SNLKPFER (SARS-CoV-2) [SEQ ID NO:36],A2: whether the 95 percentile of the last sampling is increased compared with the end point,"Balb/c mice; Embodiment II, Combination 2",Y
same,B1: D 0-D 14 95 percentile rise in the number of mice,"Balb/c mice; Embodiment II, Combination 2",5
same,B2: D 0-D 21 95 percentile rise in the number of mice,"Balb/c mice; Embodiment II, Combination 2",5
same,B3: D 14-D 21 95 percentile rise in the number of mice,"Balb/c mice; Embodiment II, Combination 2",0
same,B4: D 21-D 28 95 percentile rise in the number of mice,"Balb/c mice; Embodiment II, Combination 2",2
same,Total single peptide,"Balb/c mice; Embodiment II, Combination 2, A*3 + B*2 + C*1",11.8
same,A: 95 percentile grouping number score,"Balb/c mice; Embodiment II, Combination 2",1.5
same,B: Mouse performance score,"Balb/c mice; Embodiment II, Combination 2",3.4
same,A1: difference between a highest median and a D 0 median (95 percentile),"Balb/c mice; Embodiment II, mice immunized with Combination 2",0.1
same,B1: D 0-D 14 95 percentile rise in the number of mice,Balb/c mice; [2],3
same,B2: D 0-D 21 95 percentile rise in the number of mice,Balb/c mice; [2],2
same,B3: D 14-D 21 95 percentile rise in the number of mice,Balb/c mice; [2],0
same,B4: D 21-D 28 95 percentile rise in the number of mice,Balb/c mice; [2],2
same,A1: difference between a highest median and a D 0 median (95 percentile),Balb/c mice; [3],0.10
same,A2: whether the 95 percentile of the last sampling is increased compared with the end point,Balb/c mice; [3],Y
same,Total single peptide,"Balb/c mice; Embodiment III, polypeptide-KLH, A*3 + B*2 + C*1",17.4
same,A: 95 percentile grouping number score,Balb/c mice; [2],4.5
same,B: Mouse performance score,Balb/c mice; [2],1.7
same,C1: #A timing-sequence response peptide fragment set,Balb/c mice; [4],511
same,C2: #B vaccine specificity peptide fragment set,Balb/c mice; [4],364
same,C3: Intersection of A and B,Balb/c mice; [4],1
same,C4: Percentage of the intersection in set B,Balb/c mice; [4],0.275
same,C: Timing-sequence response and specificity score,Balb/c mice; [4],0.5
same,1) 95 percentile grouping number A,Balb/c mice; [5],3.5
same,1) 95 percentile grouping number A1,Balb/c mice; [5],0.04
same,2) Mouse performance B,Balb/c mice; [5],2.5
same,2) Mouse performance B1,Balb/c mice; [5],3
same,2) Mouse performance B2,Balb/c mice; [5],4
same,2) Mouse performance B3,Balb/c mice; [5],2
same,3) Timing-sequence response and specificity C,Balb/c mice; [5],0
same,3) Timing-sequence response and specificity C1,Balb/c mice; [5],237
same,3) Timing-sequence response and specificity C2,Balb/c mice; [5],1244
same,3) Timing-sequence response and specificity C3,Balb/c mice; [5],0
same,3) Timing-sequence response and specificity C4,Balb/c mice; [5],0.000
same,Total single peptide,Balb/c mice; [5],15.5
same,1) 95 percentile grouping number A,Balb/c mice; [6],3.5
same,1) 95 percentile grouping number A1,Balb/c mice; [6],0.05
same,2) Mouse performance B,Balb/c mice; [6],1.8
same,2) Mouse performance B1,Balb/c mice; [6],2
same,2) Mouse performance B2,Balb/c mice; [6],2
same,2) Mouse performance B3,Balb/c mice; [6],2
same,3) Timing-sequence response and specificity C,Balb/c mice; [6],0
same,3) Timing-sequence response and specificity C1,Balb/c mice; [6],203
same,3) Timing-sequence response and specificity C2,Balb/c mice; [6],1244
same,3) Timing-sequence response and specificity C3,Balb/c mice; [6],0
same,3) Timing-sequence response and specificity C4,Balb/c mice; [6],0.000
same,Total single peptide,Balb/c mice; [6],14.1
same,1) 95 percentile grouping number A,Balb/c mice; [7],0
same,1) 95 percentile grouping number A1,Balb/c mice; [7],0
same,2) Mouse performance B,Balb/c mice; [7],1.9
same,2) Mouse performance B1,Balb/c mice; [7],3
same,2) Mouse performance B2,Balb/c mice; [7],1
same,2) Mouse performance B3,Balb/c mice; [7],2
same,3) Timing-sequence response and specificity C,Balb/c mice; [7],1
same,3) Timing-sequence response and specificity C1,Balb/c mice; [7],123
same,3) Timing-sequence response and specificity C2,Balb/c mice; [7],1244
same,3) Timing-sequence response and specificity C3,Balb/c mice; [7],2
same,3) Timing-sequence response and specificity C4,Balb/c mice; [7],0.161
same,Total single peptide,Balb/c mice; [7],4.3
same,1) 95 percentile grouping number A,Balb/c mice; [8],4.5
same,1) 95 percentile grouping number A1,Balb/c mice; [8],0.065
same,2) Mouse performance B,Balb/c mice; [8],2.5
same,2) Mouse performance B1,Balb/c mice; [8],5
same,2) Mouse performance B2,Balb/c mice; [8],3
same,2) Mouse performance B3,Balb/c mice; [8],1
same,3) Timing-sequence response and specificity C,Balb/c mice; [8],1
same,3) Timing-sequence response and specificity C1,Balb/c mice; [8],100
same,3) Timing-sequence response and specificity C2,Balb/c mice; [8],1244
same,3) Timing-sequence response and specificity C3,Balb/c mice; [8],3
same,3) Timing-sequence response and specificity C4,Balb/c mice; [8],0.241
same,Total single peptide,Balb/c mice; [8],19
same,1) 95 percentile grouping number A,Balb/c mice; [9],4.5
same,1) 95 percentile grouping number A1,Balb/c mice; [9],0.065
same,2) Mouse performance B,Balb/c mice; [9],2.4
same,2) Mouse performance B1,Balb/c mice; [9],4
same,2) Mouse performance B2,Balb/c mice; [9],4
same,2) Mouse performance B3,Balb/c mice; [9],1
same,3) Timing-sequence response and specificity C,Balb/c mice; [9],1
same,3) Timing-sequence response and specificity C1,Balb/c mice; [9],260
same,3) Timing-sequence response and specificity C2,Balb/c mice; [9],1244
same,3) Timing-sequence response and specificity C3,Balb/c mice; [9],3
same,3) Timing-sequence response and specificity C4,Balb/c mice; [9],0.241
same,Total single peptide,Balb/c mice; [9],18.8
same,1) 95 percentile grouping number A,Balb/c mice; [10],5
same,1) 95 percentile grouping number A1,Balb/c mice; [10],0.06
same,2) Mouse performance B,Balb/c mice; [10],3.2
same,2) Mouse performance B1,Balb/c mice; [10],4
same,2) Mouse performance B2,Balb/c mice; [10],4
same,2) Mouse performance B3,Balb/c mice; [10],3
same,3) Timing-sequence response and specificity C,Balb/c mice; [10],0
same,3) Timing-sequence response and specificity C1,Balb/c mice; [10],153
same,3) Timing-sequence response and specificity C2,Balb/c mice; [10],1244
same,3) Timing-sequence response and specificity C3,Balb/c mice; [10],0
same,3) Timing-sequence response and specificity C4,Balb/c mice; [10],0.000
same,Total single peptide,Balb/c mice; [10],21.4
same,Neutralizing antibody positive rate (%),"[1]; Embodiment I: single peptide 100 μg + MF59 at Day 0, 14, 28, Balb/c mice, serum Day 35",40%
same,Neutralizing activity of serum to the novel coronavirus (in words),[1]; Embodiment I: single peptide vaccines + MF59,optimal neutralization effect
